Measurements published in patent US20250177393A1, “MODULATORS OF MYC FAMILY PROTO-ONCOGENE PROTEIN” (Nalo Therapeutics, priority 2022, published 2025).
Read-outs that look alike come from different tables or passages of the source.

Experiments:
[1] = biological target: T1, MycC (Homo sapiens, UniProt P01106); test: Degradation of MycC protein in L363 cells (JESS/Western blot); type: cell-based; conditions: for Dmax at 0.5 µM: read-out: % Degradation of MycC (L-363) 24 h, 0.5 μM; for Dmax at 1 µM: read-out: % Degradation of MycC (L-363) 24 h, 1 μM; for Dmax at 3 µM: read-out: % Degradation of MycC (L-363) 24 h, 3 μM; for Dmax at 6 µM: read-out: % Degradation of MycC (L-363) 24 h, 6 μM
T1 construct: endogenous in cells; host or cells: L363
T1 sequence (P01106 whole entry): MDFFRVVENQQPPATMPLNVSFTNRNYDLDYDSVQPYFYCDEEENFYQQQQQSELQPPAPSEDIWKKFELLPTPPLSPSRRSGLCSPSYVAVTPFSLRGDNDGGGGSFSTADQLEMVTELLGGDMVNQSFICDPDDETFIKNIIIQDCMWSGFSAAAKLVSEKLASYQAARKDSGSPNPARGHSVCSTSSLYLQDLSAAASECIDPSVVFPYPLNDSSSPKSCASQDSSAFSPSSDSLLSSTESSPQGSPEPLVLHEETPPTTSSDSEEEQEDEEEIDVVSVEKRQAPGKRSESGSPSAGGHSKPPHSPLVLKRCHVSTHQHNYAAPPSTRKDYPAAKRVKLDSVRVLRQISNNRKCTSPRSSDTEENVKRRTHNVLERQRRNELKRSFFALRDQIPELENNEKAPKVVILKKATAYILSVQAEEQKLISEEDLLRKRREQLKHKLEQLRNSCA
Protocol: (§1) For L363 cells (suspension), 1E6 cells were plated into each well of a 6 well plate. For SK—N-BE(2) cells (adherent), 5E5 cells were plated into each well of a 6 well dish. […] All compounds were diluted to 10 mM in DMSO. Cells were treated with the compound for 24 hrs, then for both cell types, media containing cells were removed from wells into a 15 ml centrifuge tube, and remaining adherent SK—N-BE(2) cells were also scraped from the wells into the appropriate tubes. Tubes were centrifuged, cells were washed with PBS then re-centrifuged to pellet cells. A RIPA buffer cocktail was added to the cells on ice for 5 mins. Cell lysates were clarified by centrifugation and stored at −80 degrees until required. BCA assay was performed on each lysate to determine the protein concentration. For validation studies of antibodies, lysates and antibodies were used at a number of concentrations (Lysates: 2, 1, 0.2 mg/ml; Antibodies: 1 in 50, 1 in 200 dilution). Once an appropriate lysate concentration and antibody concentration was determined, samples were screened in the JESS technology (Protein Simple, San Jose, CA—https://www.proteinsimple.com/jess.html). Target protein antibodies (n-myc and c-myc) were detected in the chemiluminescence channel and loading controls (tubulin and GAPDH) were detected using a Near Infra Red (NIR) labeled secondary antibody. For SK—N-EB2 adherent cells, 5E5 cells in 1.9 mls media were plated into 6 well dishes and incubated for 24 hrs. […] Cells were scrapped off the plate, centrifuged, washed with PBS, centrifuged, then a RIPA buffer cocktail added to the cells (100 ul), centrifuged and stored at −80 for later analysis. For L363 suspension cells, 1E6 cells were plated into 24 well dishes (950 ul media) and incubated for 24 hrs. […] Cells were aspirated into tubes, centrifuged, washed with PBS, centrifuged, then a RIPA buffer cocktail added to the cells (100 ul), centrifuged and stored at −80 for later analysis. For Western blot, a BCA (total protein) assay was run on all samples, these were then run in batches of 5 compounds plus control (DMSO) on each Western blot run—n-myc and c-myc were run in separate experiments in the chemiluminescence channel. Both tubulin and GAPDH were run as loading controls in all lanes in the near infra red channel.

[2] = biological target: T2, MycN (Homo sapiens, UniProt P04198); test: Degradation of MycN protein in SK-N-BE(2) cells (JESS/Western blot); type: cell-based; conditions: for Dmax at 0.5 µM: read-out: % Degradation of MycN (SKNBE2) 24 h, 0.5 μM; for Dmax at 3 µM: read-out: % Degradation of MycN (SKNBE2) 24 h, 3 μM; for Dmax at 6 µM: read-out: % Degradation of MycN (SKNBE2) 24 h, 6 μM; for Dmax at 1 µM: read-out: % Degradation of MycN (SKNBE2) 24 h, 1 μM
T2 construct: endogenous in cells; host or cells: SK-N-BE(2)
T2 sequence (P04198 1-464): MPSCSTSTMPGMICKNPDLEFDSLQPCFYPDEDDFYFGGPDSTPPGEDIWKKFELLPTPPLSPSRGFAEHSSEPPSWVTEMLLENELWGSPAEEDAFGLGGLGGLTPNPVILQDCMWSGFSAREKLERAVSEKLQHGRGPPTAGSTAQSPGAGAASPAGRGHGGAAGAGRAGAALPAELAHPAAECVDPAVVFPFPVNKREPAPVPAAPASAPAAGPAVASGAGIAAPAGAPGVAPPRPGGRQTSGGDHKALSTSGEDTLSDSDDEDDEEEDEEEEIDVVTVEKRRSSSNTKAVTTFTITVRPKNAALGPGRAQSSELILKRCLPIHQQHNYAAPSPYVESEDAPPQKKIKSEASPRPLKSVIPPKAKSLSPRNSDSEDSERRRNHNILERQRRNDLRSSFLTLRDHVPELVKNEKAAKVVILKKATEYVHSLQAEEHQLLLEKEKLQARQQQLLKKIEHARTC
Protocol: as §1

| SMILES | Dmax at 0.5 µM ([1]; L-363 cells, 24 h, 0.5 μM) [%] | Dmax at 1 µM ([1]; L-363 cells, 24 h, 1 μM) [%] | Dmax at 3 µM ([1]; L-363 cells, 24 h, 3 μM) [%] | Dmax at 6 µM ([1]; L-363 cells, 24 h, 6 μM) [%] | Dmax at 0.5 µM ([2]; SKNBE2 cells, 24 h, 0.5 μM) [%] | Dmax at 1 µM ([2]; SKNBE2 cells, 24 h) [%] | Dmax at 3 µM ([2]; SKNBE2 cells, 24 h, 3 μM) [%] | Dmax at 6 µM ([2]; SKNBE2 cells, 24 h, 6 μM) [%] | Dmax at 0.5 µM ([1]; L-363, 24 h) [%] | Dmax at 1 µM ([1]; L-363, 24 h) [%] | Dmax at 3 µM ([1]; L-363, 24 h) [%] | Dmax at 6 µM ([1]; L-363, 24 h) [%] | Dmax at 0.5 µM ([2]; SKNBE2, 24 h) [%] | Dmax at 3 µM ([2]; SKNBE2, 24 h) [%] | Dmax at 6 µM ([2]; SKNBE2, 24 h) [%] |
| --- | --- | --- | --- | --- | --- | --- | --- | --- | --- | --- | --- | --- | --- | --- | --- |
| CN1CCC(Nc2nccc(Nc3cc(C4CCCC4)[nH]n3)n2)CC1 [Compound 31] | – | – | – | – | – | – | – | – | 50 to 79 | 50 to 79 | 80 to 100 | 80 to 100 | < 20 | 80 to 100 | 80 to 100 |
| F[C@@H]1CNCC[C@@H]1Nc1nccc(Nc2cc(C3CC3)[nH]n2)n1 [Compound 44, N^4-(5-Cyclopropyl-1H-pyrazol-3-yl)-N^2-[(3R,4S)-3-fluoro-4-piperidyl]pyrimidine-2,4-diamine] | < 20 | 20 to 49 | 20 to 49 | < 20 | < 20 | 20 to 49 | 20 to 49 | 50 to 79 | – | – | – | – | – | – | – |
| c1cc(Nc2cc(C3CC3)[nH]n2)nc(NC2CC3(CNC3)C2)n1 [Compound 28, N^4-(5-cyclopropyl-1H-pyrazol-3-yl)-N^2-(2-azaspiro[3.3]heptan-6-yl)pyrimidine-2,4-diamine] | < 20 | < 20 | < 20 | 20 to 49 | – | – | – | < 20 | – | – | – | – | – | – | – |
| c1cc(Nc2cc(C3CC3)[nH]n2)nc(NC2CCOCC2)n1 [Compound 65, N4-(5-Cyclopropyl-1H-pyrazol-3-yl)-N2-tetrahydropyran-4-yl-pyrimidine-2,4-diamine] | 20 to 49 | 80 to 100 | 80 to 100 | 80 to 100 | 20 to 49 | 50 to 79 | 80 to 100 | 80 to 100 | – | – | – | – | – | – | – |

Continued, in another order:

| Dmax at 0.5 µM ([1]; L-363 cells, 24 h, 0.5 μM) [%] | Dmax at 1 µM ([1]; L-363 cells, 24 h, 1 μM) [%] | Dmax at 3 µM ([1]; L-363 cells, 24 h, 3 μM) [%] | Dmax at 6 µM ([1]; L-363 cells, 24 h, 6 μM) [%] | Dmax at 0.5 µM ([2]; SKNBE2 cells, 24 h, 0.5 μM) [%] | Dmax at 1 µM ([2]; SKNBE2 cells, 24 h) [%] | Dmax at 3 µM ([2]; SKNBE2 cells, 24 h, 3 μM) [%] | Dmax at 6 µM ([2]; SKNBE2 cells, 24 h, 6 μM) [%] | SMILES | Dmax at 0.5 µM ([1]; L-363, 24 h) [%] | Dmax at 1 µM ([1]; L-363, 24 h) [%] | Dmax at 3 µM ([1]; L-363, 24 h) [%] | Dmax at 6 µM ([1]; L-363, 24 h) [%] | Dmax at 0.5 µM ([2]; SKNBE2, 24 h) [%] | Dmax at 3 µM ([2]; SKNBE2, 24 h) [%] | Dmax at 6 µM ([2]; SKNBE2, 24 h) [%] |
| --- | --- | --- | --- | --- | --- | --- | --- | --- | --- | --- | --- | --- | --- | --- | --- |
| 80 to 100 | 80 to 100 | 80 to 100 | 80 to 100 | 80 to 100 | 80 to 100 | 80 to 100 | 80 to 100 | CN1CC2(CCC(Nc3nccc(Nc4cc(C5CCCC5)[nH]n4)n3)CC2)C1 [Compound 20, N^4-(5-Cyclopentyl-1H-pyrazol-3-yl)-N^2-(2-methyl-2-azaspiro[3.5]nonan-7-yl)pyrimidine-2,4-diamine] | – | – | – | – | – | – | – |
| 80 to 100 | 80 to 100 | 80 to 100 | 80 to 100 | < 20 | < 20 | – | 50 to 79 | c1cc(Nc2cc(C3CCCC3)[nH]n2)nc(NC2CC3(CNC3)C2)n1 [Compound 30, N^4-(5-cyclopentyl-1H-pyrazol-3-yl)-N^2-(2-azaspiro[3.3]heptan-6-yl)pyrimidine-2,4-diamine] | – | – | – | – | – | – | – |
